The test system of data set [1] is Candida albicans. Nature of the data set: Antimicrobial activity against Candida albicans after 24 hrs by microdilution technique in high salt condition. The class given is functional. For orientation: Broth dilution looks for growth in wells or tubes with falling amounts of substance.
For data set [2], the system named is Staphylococcus aureus. Nature of the data set: Antimicrobial activity against Staphylococcus aureus after 24 hrs by microdilution technique in absence of NaCl. The class given is functional.
The test system of data set [3] is Escherichia coli. Kind of data set: Antimicrobial activity against Escherichia coli after 24 hrs by microdilution technique in absence of NaCl. The class given is functional.
Data set [4] relates to Micrococcus luteus. Nature of the data set: Antimicrobial activity against Micrococcus luteus after 24 hrs by microdilution technique in absence of NaCl. The class given is functional.
The subject of data set [5] is Pseudomonas aeruginosa. Kind of data set: Antimicrobial activity against Pseudomonas aeruginosa after 24 hrs by microdilution technique in high salt condition. The class given is functional.
The test system of data set [6] is Pseudomonas aeruginosa. Kind of data set: Antimicrobial activity against Pseudomonas aeruginosa after 24 hrs by microdilution technique in absence of NaCl. The class given is functional.
Data set [7] relates to Candida albicans. Nature of the data set: Antimicrobial activity against Candida albicans after 24 hrs by microdilution technique in absence of NaCl. The class given is functional.
The subject of data set [8] is Escherichia coli. Kind of data set: Antimicrobial activity against Escherichia coli after 24 hrs by microdilution technique in high salt condition. The class given is functional.
In data set [9] the test system is Staphylococcus aureus. Nature of the data set: Antimicrobial activity against Staphylococcus aureus after 24 hrs by microdilution technique in high salt condition. The class given is functional.
The subject of data set [10] is Micrococcus luteus. Kind of data set: Antimicrobial activity against Micrococcus luteus after 24 hrs by microdilution technique in high salt condition. The class given is functional.
In another data set the test system is Erythrocyte. Kind of data set: Hemolytic activity in human red blood cells after 1 hrs. The class given is functional.
A short description of data set [11]: Effect on leakage from large unilamellar vesicles containing phosphatidylglycerol/phosphatidyl choline assessed as release of entrapped dye at 50 uM. The class given is physicochemical.

≈ marks a conversion by molar mass, not a printed value. Where a SMILES comes first, the peptide text is derived from it. Bridges are numbered along the chain shown (N, C = ends).

A word on the MIC: it is the lowest concentration found to suppress growth. A word on the HC50: it is the concentration giving 50% haemolysis. A low value points to more damage to red cells. For the molecule `CC(C)C[C@H](NC(=O)[C@H](CS)NC(=O)[C@H](Cc1cnc[nH]1)NC(=O)[C@H](C)NC(=O)[C@H](C)NC(=O)[C@H](CS)NC(=O)[C@H](C)NC(=O)[C@H](C)NC(=O)[C@@H](N)CC(=O)O)C(=O)N[C@@H](Cc1c[nH]c2ccccc12)C(=O)N[C@@H](CCCNC(=N)N)C(N)=O` (H-DAACAAHCLWR-NH2), the MIC in the data set on Candida albicans [1], against Staphylococcus aureus [2], in the data set with Escherichia coli [3], against Micrococcus luteus [4], in the data set with Pseudomonas aeruginosa [5] and in the data set with Pseudomonas aeruginosa [6] was > 200 µg/mL each time. In addition, the MIC in the data set with Candida albicans [7], in the data set with Escherichia coli [8], in the data set on Staphylococcus aureus [9] and with Micrococcus luteus [10] was > 200 µg/mL in each case. Further, in the data set on Erythrocyte, the HC50 is >200 µg/mL.

For `CC(C)C[C@H](NC(=O)[C@@H]1CSSC[C@H](NC(=O)[C@H](C)NC(=O)[C@H](C)NC(=O)[C@@H](N)CC(=O)O)C(=O)N[C@@H](C)C(=O)N[C@@H](C)C(=O)N[C@@H](Cc2cnc[nH]2)C(=O)N1)C(=O)N[C@@H](Cc1c[nH]c2ccccc12)C(=O)N[C@@H](CCCNC(=N)N)C(N)=O` (H-DAACAAHCLWR-NH2; disulfide 4-8), the MIC with Candida albicans [1], in the data set with Staphylococcus aureus [2], in the data set with Escherichia coli [3], in the data set with Micrococcus luteus [4], in the data set on Pseudomonas aeruginosa [5] and in the data set on Pseudomonas aeruginosa [6] was > 200 µg/mL each time. In addition, the MIC with Escherichia coli [8], in the data set with Staphylococcus aureus [9] and with Micrococcus luteus [10] was > 200 µg/mL throughout. Moreover, in the data set on Erythrocyte, the 50% haemolytic concentration (HC50) was >200 µg/mL.

Regarding `CC(C)C[C@H](NC(=O)[C@H](CS)NC(=O)[C@H](CCCCN)NC(=O)[C@H](C)NC(=O)[C@H](C)NC(=O)[C@H](CS)NC(=O)[C@H](C)NC(=O)[C@H](C)NC(=O)[C@@H](N)CC(=O)O)C(=O)N[C@@H](Cc1c[nH]c2ccccc12)C(=O)N[C@@H](CCCNC(=N)N)C(N)=O` (H-DAACAAKCLWR-NH2), the MIC in the data set on Candida albicans [1] was > 200 µg/mL; with Staphylococcus aureus [2] it was 200 µg/mL (≈ 166 µM); against Escherichia coli [3], 200 µg/mL (≈ 166 µM); in the data set on Micrococcus luteus [4], 200 µg/mL (≈ 166 µM); in the data set on Pseudomonas aeruginosa [5] it was > 200 µg/mL; with Pseudomonas aeruginosa [6], > 200 µg/mL. For the same molecule, the minimal inhibitory concentration (MIC) in the data set on Escherichia coli [8], in the data set on Staphylococcus aureus [9] and in the data set on Micrococcus luteus [10] was > 200 µg/mL each time. Besides, the HC50 in the data set on Erythrocyte was >200 µg/mL.

Consider `CC(C)C[C@H](NC(=O)[C@@H]1CSSC[C@H](NC(=O)[C@H](C)NC(=O)[C@H](C)NC(=O)[C@@H](N)CC(=O)O)C(=O)N[C@@H](C)C(=O)N[C@@H](C)C(=O)N[C@@H](CCCCN)C(=O)N1)C(=O)N[C@@H](Cc1c[nH]c2ccccc12)C(=O)N[C@@H](CCCNC(=N)N)C(N)=O` (H-DAACAAKCLWR-NH2; disulfide 4-8), for which the MIC in the data set on Candida albicans [1], against Staphylococcus aureus [2], in the data set on Escherichia coli [3], with Micrococcus luteus [4], with Pseudomonas aeruginosa [5] and in the data set on Pseudomonas aeruginosa [6] was > 200 µg/mL throughout. Moreover, the MIC with Escherichia coli [8], with Staphylococcus aureus [9] and in the data set with Micrococcus luteus [10] was > 200 µg/mL each time. Further, the HC50 in the data set on Erythrocyte was >200 µg/mL.

As for `CC(C)C[C@H](NC(=O)[C@H](CS)NC(=O)[C@H](Cc1cnc[nH]1)NC(=O)[C@H](C)NC(=O)[C@H](C)NC(=O)[C@H](CS)NC(=O)[C@H](C)NC(=O)[C@H](C)NC(=O)[C@@H](N)CCCCN)C(=O)N[C@@H](Cc1c[nH]c2ccccc12)C(=O)N[C@@H](CCCNC(=N)N)C(N)=O` (H-KAACAAHCLWR-NH2) [listing 1 of 2 here], in data set [11], the Activity stood at 70%.

Turning to `CC(C)C[C@H](NC(=O)[C@H](CS)NC(=O)[C@H](Cc1cnc[nH]1)NC(=O)[C@H](C)NC(=O)[C@H](C)NC(=O)[C@H](CS)NC(=O)[C@H](C)NC(=O)[C@H](C)NC(=O)[C@@H](N)CCCCN)C(=O)N[C@@H](Cc1c[nH]c2ccccc12)C(=O)N[C@@H](CCCNC(=N)N)C(N)=O` (H-KAACAAHCLWR-NH2) [listing 2 of 2 here], the MIC in the data set on Candida albicans [1] was > 200 µg/mL; against Staphylococcus aureus [2], 50 µg/mL; in the data set on Escherichia coli [3] it was 50 µg/mL; against Micrococcus luteus [4] it was 25 µg/mL; in the data set on Pseudomonas aeruginosa [5], > 200 µg/mL; in the data set with Pseudomonas aeruginosa [6] it was 100 µg/mL. The MIC with Escherichia coli [8], in the data set with Staphylococcus aureus [9] and in the data set with Micrococcus luteus [10] was > 200 µg/mL throughout. Further, in the data set on Erythrocyte, the HC50 was >200 µg/mL.

For `CC(C)C[C@H](NC(=O)[C@@H]1CSSC[C@H](NC(=O)[C@H](C)NC(=O)[C@H](C)NC(=O)[C@@H](N)CCCCN)C(=O)N[C@@H](C)C(=O)N[C@@H](C)C(=O)N[C@@H](Cc2cnc[nH]2)C(=O)N1)C(=O)N[C@@H](Cc1c[nH]c2ccccc12)C(=O)N[C@@H](CCCNC(=N)N)C(N)=O` (H-KAACAAHCLWR-NH2; disulfide 4-8), the MIC was > 200 µg/mL with Candida albicans [1]; 100 µg/mL against Staphylococcus aureus [2]; > 200 µg/mL with Escherichia coli [3]; 100 µg/mL against Micrococcus luteus [4]; > 200 µg/mL with Pseudomonas aeruginosa [5]; > 200 µg/mL in the data set on Pseudomonas aeruginosa [6]. The MIC in the data set with Escherichia coli [8] was > 200 µg/mL; in the data set with Staphylococcus aureus [9] it was 100 µg/mL; in the data set with Micrococcus luteus [10], 100 µg/mL. In addition, the Activity in data set [11] is 20%. In the data set with Erythrocyte, the HC50 is >200 µg/mL.

Consider `CC(C)C[C@H](NC(=O)[C@H](CS)NC(=O)[C@H](CCCCN)NC(=O)[C@H](C)NC(=O)[C@H](C)NC(=O)[C@H](CS)NC(=O)[C@H](C)NC(=O)[C@H](C)NC(=O)[C@@H](N)CCCCN)C(=O)N[C@@H](Cc1c[nH]c2ccccc12)C(=O)N[C@@H](CCCNC(=N)N)C(N)=O` (H-KAACAAKCLWR-NH2), for which the MIC with Candida albicans [1] is > 200 µg/mL; against Staphylococcus aureus [2], 50 µg/mL (≈ 41 µM); in the data set with Escherichia coli [3], 50 µg/mL (≈ 41 µM); against Micrococcus luteus [4], 25 µg/mL (≈ 20.5 µM); with Pseudomonas aeruginosa [5] it was > 200 µg/mL; in the data set on Pseudomonas aeruginosa [6], 100 µg/mL (≈ 82 µM). For the same molecule, the figures for the MIC with Escherichia coli [8], in the data set on Staphylococcus aureus [9] and with Micrococcus luteus [10] were > 200 µg/mL, 100 µg/mL and 200 µg/mL, respectively. Further, the HC50 in the data set on Erythrocyte is >200 µg/mL.

On to `CC(C)C[C@H](NC(=O)[C@@H]1CSSC[C@H](NC(=O)[C@H](C)NC(=O)[C@H](C)NC(=O)[C@@H](N)CCCCN)C(=O)N[C@@H](C)C(=O)N[C@@H](C)C(=O)N[C@@H](CCCCN)C(=O)N1)C(=O)N[C@@H](Cc1c[nH]c2ccccc12)C(=O)N[C@@H](CCCNC(=N)N)C(N)=O` (H-KAACAAKCLWR-NH2; disulfide 4-8), for which the MIC is > 200 µg/mL in the data set with Candida albicans [1]; 50 µg/mL (≈ 41.1 µM) against Staphylococcus aureus [2]; 50 µg/mL (≈ 41.1 µM) with Escherichia coli [3]; 50 µg/mL (≈ 41.1 µM) with Micrococcus luteus [4]; > 200 µg/mL with Pseudomonas aeruginosa [5]; > 200 µg/mL against Pseudomonas aeruginosa [6]. The results for the MIC in the data set on Escherichia coli [8], in the data set with Staphylococcus aureus [9] and in the data set with Micrococcus luteus [10] were 200 µg/mL, > 200 µg/mL and 200 µg/mL, respectively. The HC50 in the data set on Erythrocyte was >200 µg/mL.

The values above are taken from ChEMBL document CHEMBL1157136, “Design and synthesis of cyclic disulfide-bonded antibacterial peptides on the basis of the alpha helical domain of Tenecin 1, an insect defensin” (Bioorg Med Chem, 2008).
